Laboratory results reported in the Kinase Knowledgebase extract (Sharma et al. 2016).
pKi: −log10 of the molar value.

Each molecule was assayed against CDK2 (UniProt P24941) (assay: Enzyme Assay). Conditions: not given.

Row | Structure (SMILES) | pKi
1 | Nc1nc(Nc2ccc(S(=O)(=O)NCCCc3ccccc3)cc2)sc1C(=O)c1c(F)cccc1F | 8.44
2 | Cc1cc(F)c(C(=O)c2sc(Nc3ccc(S(=O)(=O)NCc4ccc(C)o4)cc3)nc2N)c(F)c1 | > 8.00
3 | CC(C)CCCCNS(=O)(=O)c1ccc(Nc2nc(N)c(C(=O)c3c(F)cccc3F)s2)cc1 | 8.43
4 | Nc1nc(Nc2ccc(S(=O)(=O)NCC3CCNCC3)cc2)sc1C(=O)c1c(F)cccc1F | 7.89
5 | CCCOCCNS(=O)(=O)c1ccc(Nc2nc(N)c(C(=O)c3c(F)cccc3F)s2)cc1 | > 8.30
6 | CC(C)(O)CCCCNS(=O)(=O)c1ccc(Nc2nc(N)c(C(=O)c3c(F)cccc3F)s2)cc1 | 9.32
7 | CCOC(=O)CNS(=O)(=O)c1ccc(Nc2nc(N)c(C(=O)c3c(F)cccc3F)s2)cc1 | 8.31
8 | Nc1nc(Nc2ccc(S(=O)(=O)NCc3cc4ccccc4o3)cc2)sc1C(=O)c1c(F)cccc1F | 8.34
9 | Cn1cncc1CNS(=O)(=O)c1ccc(Nc2nc(N)c(C(=O)c3c(F)cccc3F)s2)cc1 | 8.16
10 | Nc1nc(Nc2ccc(S(=O)(=O)NCCc3cccc(Cl)c3)cc2)sc1C(=O)c1c(F)cccc1F | > 8.00

Same assay, conditions: concentration not given here

Row | Structure (SMILES) | inhibition [%]
11 | COCCN(CCOC)S(=O)(=O)c1ccc(Nc2nc(N)c(C(=O)c3c(F)cccc3F)s2)cc1 | 8
12 | CN1CCC(N(C)S(=O)(=O)c2ccc(Nc3nc(N)c(C(=O)c4c(F)cccc4F)s3)cc2)C1 (stereo unspecified) | 22
13 | NC(=O)C1CCN(S(=O)(=O)c2ccc(Nc3nc(N)c(C(=O)c4c(F)cccc4F)s3)cc2)CC1 | 40
14 | Nc1nc(Nc2ccc(S(=O)(=O)N3CCCC(CO)C3)cc2)sc1C(=O)c1c(F)cccc1F (stereo unspecified) | 30
15 | Nc1nc(Nc2ccc(S(=O)(=O)N(CCO)CCO)cc2)sc1C(=O)c1c(F)cccc1F | -1
16 | C=CCN1CCN(S(=O)(=O)c2ccc(Nc3nc(N)c(C(=O)c4c(F)cccc4F)s3)cc2)CC1 | 6
17 | Nc1nc(Nc2ccc(S(=O)(=O)N3CCSCC3)cc2)sc1C(=O)c1c(F)cccc1F | 23
18 | CN1CCC(N(C)S(=O)(=O)c2ccc(Nc3nc(N)c(C(=O)c4c(F)cccc4F)s3)cc2)CC1 | 9
19 | CN(CCC#N)S(=O)(=O)c1ccc(Nc2nc(N)c(C(=O)c3c(F)cccc3F)s2)cc1 | 27
20 | COC(=O)CN(C)S(=O)(=O)c1ccc(Nc2nc(N)c(C(=O)c3c(F)cccc3F)s2)cc1 | 18
21 | CN(CCC1OCCO1)S(=O)(=O)c1ccc(Nc2nc(N)c(C(=O)c3c(F)cccc3F)s2)cc1 | 20
22 | Nc1nc(Nc2ccc(S(=O)(=O)N3CCN(CC(=O)N4CCCC4)CC3)cc2)sc1C(=O)c1c(F)cccc1F | 14
23 | CN(CCO)S(=O)(=O)c1ccc(Nc2nc(N)c(C(=O)c3c(F)cccc3F)s2)cc1 | 28
24 | CN(Cc1cccnc1)S(=O)(=O)c1ccc(Nc2nc(N)c(C(=O)c3c(F)cccc3F)s2)cc1 | 12
25 | Nc1nc(Nc2ccc(S(=O)(=O)N3CCC(CCO)CC3)cc2)sc1C(=O)c1c(F)cccc1F | 21
26 | Nc1nc(Nc2ccc(S(=O)(=O)N3CCN(c4ccc(F)cc4)CC3)cc2)sc1C(=O)c1c(F)cccc1F | 37

Row | Structure (SMILES) | inhibition [%]
27 | CN(C)CCN(C)S(=O)(=O)c1ccc(Nc2nc(N)c(C(=O)c3c(F)cccc3F)s2)cc1 | 26
28 | CCN(CC)CCCN(C)S(=O)(=O)c1ccc(Nc2nc(N)c(C(=O)c3c(F)cccc3F)s2)cc1 | 21
29 | N#CCCN(C1CC1)S(=O)(=O)c1ccc(Nc2nc(N)c(C(=O)c3c(F)cccc3F)s2)cc1 | 8
30 | CN(CCc1ccccc1)S(=O)(=O)c1ccc(Nc2nc(N)c(C(=O)c3c(F)cccc3F)s2)cc1 | 9
31 | Nc1nc(Nc2ccc(S(=O)(=O)N3CCOCC3)cc2)sc1C(=O)c1c(F)cccc1F | 27
32 | CCN(CCO)S(=O)(=O)c1ccc(Nc2nc(N)c(C(=O)c3c(F)cccc3F)s2)cc1 | 24
33 | CN1CCN(S(=O)(=O)c2ccc(Nc3nc(N)c(C(=O)c4c(F)cccc4F)s3)cc2)CC1 | 18
34 | CN(CCc1ccncc1)S(=O)(=O)c1ccc(Nc2nc(N)c(C(=O)c3c(F)cccc3F)s2)cc1 | 19
35 | CN(CC(O)CO)S(=O)(=O)c1ccc(Nc2nc(N)c(C(=O)c3c(F)cccc3F)s2)cc1 (stereo unspecified) | 15
36 | Nc1nc(Nc2ccc(S(=O)(=O)N3CCN(CCN4CCOCC4)CC3)cc2)sc1C(=O)c1c(F)cccc1F | 11
37 | CCN(CC)CCN(C)S(=O)(=O)c1ccc(Nc2nc(N)c(C(=O)c3c(F)cccc3F)s2)cc1 | 27
38 | CN(CCCCCCO)S(=O)(=O)c1ccc(Nc2nc(N)c(C(=O)c3c(F)cccc3F)s2)cc1 | 28
39 | CN(CCc1ccccn1)S(=O)(=O)c1ccc(Nc2nc(N)c(C(=O)c3c(F)cccc3F)s2)cc1 | 16
40 | Nc1nc(Nc2ccc(S(=O)(=O)N3CCN(CCOCCO)CC3)cc2)sc1C(=O)c1c(F)cccc1F | -1
41 | COCCN(C)S(=O)(=O)c1ccc(Nc2nc(N)c(C(=O)c3c(F)cccc3F)s2)cc1 | 4
